Assay results taken from US4110327A, “2,3 Diketo-piperazinocarbonylamino alkanoic acids and derivatives” (Toyama Chemical Co., Ltd., priority 1974, dated 1978).
≈ marks a conversion by molar mass, not a printed value.

Key:
Test in all cases: MIC against standard strain, plate method
Format in all cases: cell-based
[1] = test system: Pseudomonas aeruginosa I.F.O.; conditions: unit assumed
Protocol: (§1) The minimum inhibitory concentrations (MIC) was determined by the plate method disclosed in "Chemotherapy" (Japan), Vol. 16, (1968), pages 98 - 99. The culture medium used was a Heart infusion agar (pH 7.4). The number of the cells per plate used in the inoculum as 10^4 (10^6 cells/ml).

Escherichia coli NIHJ = conditions: unit assumed
Protocol: as §1

Proteus vulgaris 3027 = conditions: Proteus vulgaris 3027, standard strain; unit assumed
Protocol: as §1

Klebsiella pneumoniae = conditions: unit assumed
Protocol: as §1

[2] = test system: Staphylococcus aureus 209p; conditions: unit assumed
Protocol: as §1

Row | SMILES | MIC [1] [µg/mL] | MIC (Escherichia coli NIHJ) [µg/mL] | MIC (Proteus vulgaris 3027) [µg/mL] | MIC (Klebsiella pneumoniae) [µg/mL] | MIC [2] [µg/mL]
1 | CC(=O)NC(=O)N1CCN(C(=O)N[C@@H](C(=O)N[C@@H]2C(=O)N3[C@@H]2SC(C)(C)[C@@H]3C(=O)O)c2ccccc2)C(=O)C1 [compound 11] | 50 (≈ 89.2 µM) | < 1.57 | 6.25 (≈ 11.1 µM) | 50 (≈ 89.2 µM) | < 1.57
2 | CC1(C)S[C@@H]2[C@H](NC(=O)[C@H](NC(=O)N3CCN(C4CCCC4)C(=O)C3)c3ccccc3)C(=O)N2[C@H]1C(=O)O (single isomer, unassigned) [compound 32] | 12.5 (≈ 23 µM) | < 1.57 | 6.25 (≈ 11.5 µM) | 12.5 (≈ 23 µM) | < 1.57
3 | C=CCN1CCN(C(=O)N[C@@H](C(=O)N[C@@H]2C(=O)N3[C@@H]2SC(C)(C)[C@@H]3C(=O)O)c2ccccc2)CC1=O [compound 25] | 25 (≈ 48.5 µM) | < 1.57 | 3.13 (≈ 6.07 µM) | 50 (≈ 97 µM) | < 1.57
4 | CN1CCN(C(=O)N[C@@H](C(=O)N[C@@H]2C(=O)N3[C@@H]2SC(C)(C)[C@@H]3C(=O)OCOC(=O)C(C)(C)C)c2ccccc2)C(=O)C1=O (single isomer, unassigned) [compound 52] | 25 (≈ 40.5 µM) | 0.79 (≈ 1.28 µM) | 1.57 (≈ 2.54 µM) | 25 (≈ 40.5 µM) | 0.79 (≈ 1.28 µM)
5 | CN1CCN(C(=O)N[C@@H](C(=O)N[C@@H]2C(=O)N3[C@@H]2SC(C)(C)[C@@H]3C(=O)OC2OC(=O)c3ccccc32)c2ccccc2)C(=O)C1=O (single isomer, unassigned) [compound 49] | 12.5 (≈ 19.7 µM) | 0.79 (≈ 1.24 µM) | 1.57 (≈ 2.47 µM) | 12.5 (≈ 19.7 µM) | < 0.4
6 | CCCCCCCCN1CCN(C(=O)N[C@@H](C(=O)N[C@@H]2C(=O)N3[C@@H]2SC(C)(C)[C@@H]3C(=O)OCOC)c2ccccc2)C(=O)C1=O (single isomer, unassigned) [compound 51] | 12.5 (≈ 19.4 µM) | < 0.4 | < 0.4 | < 0.4 | < 0.4
7 | CC1(C)SC2C(NC(=O)C(NC(=O)N3CCNC(=O)C3=O)c3ccccc3)C(=O)N2C1C(=O)O (centres unmarked) [compound 59] | 25 (≈ 51.1 µM) | < 1.57 | 3.13 (≈ 6.39 µM) | 200 (≈ 409 µM) | < 1.57
8 | CC1(C)S[C@@H]2[C@H](NC(=O)[C@H](NC(=O)N3CCN(CCCl)C(=O)C3=O)c3ccccc3)C(=O)N2[C@H]1C(=O)O [compound 44] | 6.25 (≈ 11.3 µM) | < 1.57 | < 1.57 | < 1.57 | < 1.57
9 | CN1CCN(C(=O)NC(C(=O)NC2C(=O)N3C2SC(C)(C)C3C(=O)OCCN2CCOCC2)c2ccccc2)C(=O)C1=O (single isomer, unassigned) [compound 55] | 6.25 (≈ 10.1 µM) | 0.4 (≈ 0.649 µM) | 0.79 (≈ 1.28 µM) | 25 (≈ 40.5 µM) | 0.79 (≈ 1.28 µM)
10 | CC1(C)S[C@@H]2[C@H](NC(=O)[C@H](NC(=O)N3CCN(C(=O)c4ccccc4)CC3=O)c3ccccc3)C(=O)N2[C@H]1C(=O)O [compound 7] | 200 (≈ 345 µM) | < 1.57 | 6.25 (≈ 10.8 µM) | 12.5 (≈ 21.6 µM) | < 1.57
11 | CN1CCN(C(=O)NC(C(=O)NC2C(=O)N3C(C(=O)O)=C(CSc4nncn4C)CSC23)c2ccccc2)C(=O)C1=O (single isomer, unassigned) [compound 65] | 25 (≈ 40.7 µM) | 0.79 (≈ 1.29 µM) | 3.13 (≈ 5.09 µM) | 3.13 (≈ 5.09 µM) | 3.13 (≈ 5.09 µM)
12 | C=C(C)CN1CCN(C(=O)N[C@@H](C(=O)N[C@@H]2C(=O)N3[C@@H]2SC(C)(C)[C@@H]3C(=O)O)c2ccccc2)CC1=O [compound 27] | 25 (≈ 47.2 µM) | < 1.57 | 3.13 (≈ 5.91 µM) | 25 (≈ 47.2 µM) | < 1.57
13 | CCCCN1C(=O)CN(C(=O)N[C@@H](C(=O)N[C@@H]2C(=O)N3[C@@H]2SC(C)(C)[C@@H]3C(=O)O)c2ccccc2)CC1C (some centres unmarked) [compound 22] | 50 (≈ 91.6 µM) | < 1.57 | 6.25 (≈ 11.5 µM) | 12.5 (≈ 22.9 µM) | < 1.57
